Laboratory results reported in ChEMBL document CHEMBL3507680, “University of Dundee, Gates Library screen for HepG2 cell viability”.

Assay: Human HepG2 cell viability assay in 384 well format
Assay type: toxicity, cell-based
Set-up: dose 125 nL, time 70.5 hour; concentration not given beside the values
Details: HepG2 cells, read-out: Inhibition

| Structure (SMILES) | cytotoxicity at 70.5 h |
| --- | --- |
| NC(=O)c1c(NC(=O)CCC(=O)O)sc2c1CCc1ccccc1-2 | -9.16% |
| NC(=O)c1c(NC(=O)CCCC(=O)O)sc2c1CCc1ccccc1-2 | 10.4% |
| Cc1cccc(CSc2ncc(Cl)c(C(=O)O)n2)c1 | -11% |
| O=C(O)c1nc(SCc2ccccc2)ncc1Br | -8.29% |
| CCOc1cc(CNCCCn2ccnc2)cc(Cl)c1OCC | 19.9% |
| COc1ccc(Cl)cc1CNCCCn1ccnc1 | -2.31% |
| Cc1c(CNS(=O)(=O)c2cccc(COC(C)C)c2)cnn1C | -5.71% |
| CCn1nc(C)c2nnn(CC(=O)Nc3ccccc3)c(=O)c21 | -10.7% |
| CC(C)CN1Cc2nc(N3CCC(O)CC3)ncc2C1=O | 12.9% |
| COc1c(Br)c(C(=O)NC2CCCCC2)nn1C | -15% |
| Cn1ncc(C(=O)N2CCN(S(C)(=O)=O)CC2)c1Cl | 20.9% |
| CC(C)S(=O)(=O)N1CCN(C(=O)c2cnn(C)c2Cl)CC1 | -12.2% |
| Cc1nn(C)c(C)c1NC(=O)CCn1ncc2ccc(Cl)cc21 | -11.9% |
| CCn1nc(C)c2nnn(CC(=O)Nc3ccccc3F)c(=O)c21 | -4.52% |
| CCn1nc(C)c2nnn(CC(=O)Nc3cccc(F)c3)c(=O)c21 | -5.5% |
| CCC(=O)Nc1nnc(CCOc2ccccc2)s1 | -2.19% |
| CCC(=O)Nc1nnc(CCOc2ccccc2OC)s1 | -11.7% |
| COCc1nc(N(C)C)ncc1C(=O)Nc1ccc(Cl)cc1 | -11.1% |
| CCn1cc(NC(=O)CN2C(=O)CC(C)(C)c3ccccc32)cn1 | -4.43% |
| Cc1cc(NC(=O)CN2C(=O)CC(C)(C)c3ccccc32)no1 | -3% |
| CCOCCCNC(=O)c1nnn(Cc2ccccc2)c1OC | -4.93% |
| O=C(Nc1cc(-c2cccnc2)no1)C1CCCCC1 | -4.13% |

| Structure (SMILES) | cytotoxicity at 70.5 h |
| --- | --- |
| CNC(=O)c1cc(-c2ccccc2)nc2ncnn12 | 7.79% |
| COCCNC(=O)c1cc(C(C)C)nc(N2CCCCC2)n1 | -9.32% |
| CCN1CCN(C(=O)C2CC(=O)N(c3cnn(C(C)C)c3)C2)CC1 (stereo not given) | -1.53% |
| CC(C)n1cc(N2CC(C(=O)N3CCc4ccccc4C3)CC2=O)cn1 (stereo not given) | 26.3% |
| NCc1n[nH]c(-c2cccc(F)c2)n1 | 32.2% |
| COc1cc(-c2n[nH]c(CCN)n2)cc(OC)c1OC | 22.8% |
| OCc1n[nH]c(-c2ccc(F)cc2)n1 | -13.2% |
| Cc1ccc2c(c1)c(C)cc(=O)n2CCC#N | 0.982% |
| CC(C)c1cc(C(=O)NCCCN(C)C)nc(N2CCCC2)n1 | -8.44% |
| CCn1nc(C)c2nc(C(C)C)nc(NCCOC)c21 | -5.06% |
| COc1cc2cc(C(=O)N[C@@H](C)C(=O)O)n(C)c2c(OC)c1OC | -4.88% |
| O=C(Cn1cc(I)cn1)N1CCCC1 | -3.36% |
| CC(C)NC(=O)c1n[nH]c(-n2cnnc2)n1 | -0.175% |
| Cc1nc(N2CCN(C(=O)c3ccccc3)CC2)c2c(n1)c(C)nn2C | -2.09% |
| CCn1cc(N2Cc3nc(N4CCN(C)CC4)ncc3C2=O)cn1 | -7.74% |
| CCn1nc(C)c2nnn(CC(=O)Nc3cccc(Cl)c3)c(=O)c21 | -5.39% |
| Cc1nn(C)c2c(=O)n(CC(=O)Nc3cc(Cl)cc(Cl)c3)nnc12 | -0.624% |
| CCOCc1cccc(S(=O)(=O)N2CCSCC2)c1 | -3.6% |
| Cc1ncc(CNC(=O)c2nn(C)c3c2CS(=O)(=O)CC3)s1 | -5.86% |
| CCc1noc(C2CCCCN2C(=O)c2ccoc2C)n1 (stereo not given) | 9.18% |
| COCCCNC(=O)CCn1nc(C)c2ccccc21 | -2.16% |
| Cc1nc(N2CCCC2)ncc1-c1cc(O)nc(N2CCCC2)n1 | -11.7% |

| Structure (SMILES) | cytotoxicity at 70.5 h |
| --- | --- |
| CCN(CC)C(=O)CCn1ncc2c(Cl)cccc21 | -10.4% |
| COCc1nc(N(C)C)ncc1C(=O)NC(C)C | 12.7% |
| CCN(CC)C(=O)c1ccn(COc2ccccc2)n1 | -7.93% |
| Cc1ccc2cnn(CCC(=O)Nc3c(C)nn(C)c3C)c2c1 | -6.3% |
| Cc1nn(C)c(C)c1NC(=O)CCn1ncc2c(C)cccc21 | -5.31% |
| CC(C(=O)N1CCc2ccccc2C1)n1cc(Br)cn1 (stereo not given) | -13.3% |
| Cc1cccc2c1cnn2CCCNC(=O)CCCC(=O)O | -4.18% |
| CCS(=O)(=O)Nc1ccn(Cc2cccc(Cl)c2)n1 | -4.96% |
| O=C(NC1=NCCCN1c1ccc(Cl)cc1)c1cccc(Cl)c1 | 9.24% |
| CCOc1ccc(N2CCCN=C2NC(=O)c2ccccc2C)cc1 | -12.8% |
| Cc1cc(C)nc(NC(=O)C(C)Oc2ccc3c(c2)OCO3)n1 (stereo not given) | -11.4% |
| CSCc1cccc(S(=O)(=O)NCCCO)c1 | -6.9% |
| CSCc1cccc(S(=O)(=O)NCCCN2CCOCC2)c1 | -6.88% |
| CCN1CCN(S(=O)(=O)c2cc(C)c(Cl)cc2Cl)CC1 | 10.1% |
| CCC(C)c1noc(C2CCN(C(=O)c3cccs3)CC2)n1 (stereo not given) | -10.7% |
| CCn1cc(Br)c(C(=O)NCc2cccnc2)n1 | -7.68% |
| CC1CCN(c2ncc3c(n2)CN(c2ccc4c(c2)OCO4)C3=O)CC1 | -6.45% |
| Cc1nc(C2CCCN2C(=O)CCc2ccc(F)cc2)ncc1C(N)=O (stereo not given) | -10.3% |
| Cc1cccc(C)c1NC(=O)c1n[nH]c(-n2cnnc2)n1 | -13.4% |
| Cc1cc(N(C)C)nc(C2(C)CCCN2C(=O)c2cncnc2C)n1 (stereo not given) | -10.8% |
| CNCC(=O)N1CCCCC1c1nccc(C)n1 (stereo not given) | 16.2% |
| CC(=O)N1CCCC(c2ccc(C(=O)NC3CCCC3)cn2)C1 (stereo not given) | -5.66% |

| Structure (SMILES) | cytotoxicity at 70.5 h |
| --- | --- |
| CC1CCN(C(=O)c2cnc(CC3CCCN(C)C3)cn2)CC1 (stereo not given) | -9.3% |
| CNc1cc(C2CCCN2Cc2ccc(OCC(=O)O)cc2)ccn1 (stereo not given) | -5.44% |
| c1cncc(CN2CCCC(c3nnc(-c4cnccn4)o3)C2)c1 (stereo not given) | -14% |
| c1cc(CN2CCCC(c3nnc(-c4cnccn4)o3)C2)ccn1 (stereo not given) | -8.48% |
| c1cc(-c2nnc(C3CCCN(CC4CCCCC4)C3)o2)ccn1 (stereo not given) | -5.12% |
| CC(=O)N1CCC(c2ccnc(Nc3ccc(C)cn3)n2)C1 (stereo not given) | 16% |
| O=C(Cc1ccccc1)N1CCOC(c2nc(-c3ncccn3)no2)C1 (stereo not given) | -4.21% |
| CCCC(=O)N1CCC(c2nc(O)c3c(n2)CCN(C2CCCC2)C3)C1 (stereo not given) | -0.72% |
| CC(=O)NCC(=O)N1CCC(c2cncc(Oc3cccnc3)n2)CC1 | -9.15% |
| Cc1noc(C)c1C(=O)N1CCCC(c2c(C)c(=O)nc3n2CCC3)C1 (stereo not given) | -9.85% |
| Cc1nc(CCC(=O)NC2CCC2)cc(C2CCCNC2)n1 (stereo not given) | -9.96% |
| CN(C)C(=O)C1CN(Cc2cccs2)CCN(S(C)(=O)=O)C1 (stereo not given) | -5.12% |
| CN(Cc1ccc(F)cc1)CC1(O)CCN(C(=O)c2ccsc2)C1 (stereo not given) | 9.08% |
| Cc1nn(C)cc1C(=O)N1CCCC(n2nnc3cc(F)ccc32)C1 (stereo not given) | 11.8% |
| CCOc1ccc(Br)cc1-c1cc(N)[nH]n1 | -6.54% |
| Cc1nc(C2(O)CCCNCC2)sc1CCOc1ccccc1Cl (stereo not given) | 1.01% |
| Cc1nc(C2(O)CCCNCC2)sc1CCOc1ccccc1 (stereo not given) | -9.24% |
| Cc1nc(C2(O)CCCNCC2)sc1CCOc1ccc(F)cc1 (stereo not given) | 16.3% |
| Cc1ccc(Cc2cnc(C3CCNCC3)cn2)cc1 | -12.9% |
